Laboratory results as given in patent US7709511B2, “Benzothiazolone derivatives” (AstraZeneca AB, priority 2005, dated 2010).
Counter-ions that a name gives are not always drawn.

What was measured:
[1] = molecular target: T1, recombinant human α1D receptor (Homo sapiens, UniProt P25100); experiment: Adrenergic α1D selectivity assay, inhibition of [3H]-prazosin binding to membranes; conditions: HEK293 membranes, [3H]-prazosin 0.3 nM; read-out: α1 bind pIC50 (converted)
T1 construct: made in house; host or cells: HEK293 cells (membranes)
T1 sequence (P25100 1-572): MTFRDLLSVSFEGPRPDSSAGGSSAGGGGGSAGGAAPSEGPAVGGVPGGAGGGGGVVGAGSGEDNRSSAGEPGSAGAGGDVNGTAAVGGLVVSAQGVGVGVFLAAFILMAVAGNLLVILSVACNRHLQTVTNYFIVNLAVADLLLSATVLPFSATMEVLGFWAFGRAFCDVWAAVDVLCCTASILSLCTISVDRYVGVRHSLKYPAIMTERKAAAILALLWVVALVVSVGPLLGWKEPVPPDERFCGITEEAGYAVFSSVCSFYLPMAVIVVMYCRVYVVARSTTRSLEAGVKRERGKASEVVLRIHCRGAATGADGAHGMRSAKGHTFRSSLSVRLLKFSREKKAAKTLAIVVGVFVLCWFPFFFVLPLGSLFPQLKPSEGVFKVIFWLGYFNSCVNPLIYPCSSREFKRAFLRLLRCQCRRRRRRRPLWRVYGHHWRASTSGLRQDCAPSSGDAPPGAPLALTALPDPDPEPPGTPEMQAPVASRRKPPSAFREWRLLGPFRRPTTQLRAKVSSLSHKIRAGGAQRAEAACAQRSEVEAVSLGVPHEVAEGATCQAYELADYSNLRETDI
Protocol: Membranes were prepared from human embryonic kidney 293 (HEK293) cells expressing recombinant human α1D receptor. These were diluted in Assay Buffer (50 mM HEPES, 1 mM EDTA, 0.1% gelatin, pH 7.4) to provide a final concentration of membranes that gave a clear window between maximum and minimum specific binding.
Assays were performed in U-bottomed 96-well polypropylene plates. 10 μL [^3H]-prazosin (0.3 nM final concentration) and 10 μL of test compound (10× final concentration) were added to each test well. For each assay plate 8 replicates were obtained for [^3H]-prazosin binding in the presence of 10 μL vehicle (10% (v/v) DMSO in Assay Buffer; defining maximum binding) or 10 μL BMY7378 (10 μM final concentration; defining non-specific binding (NSB)). Membranes were then added to achieve a final volume of 100 μL. The plates were incubated for 2 hours at room temperature and then filtered onto PEI coated GF/B filter plates, pre-soaked for 1 hour in Assay Buffer, using a 96-well plate Tomtec cell harvester. Five washes with 250 μL wash buffer (50 mM HEPES, 1 mM EDTA, pH 7.4) were performed at 4° C. to remove unbound radioactivity. The plates were dried then sealed from underneath using Packard plate sealers and MicroScint-O (50 μL) was added to each well. The plates were sealed (TopSeal A) and filter-bound radioactivity was measured with a scintillation counter (TopCount, Packard BioScience) using a 3-minute counting protocol.
(§1) Total specific binding (B0) was determined by subtracting the mean NSB from the mean maximum binding. NSB values were also subtracted from values from all other wells. […] Data was fitted to a four parameter logistic equation to determine the compound potency, which was expressed as pIC50 (negative log molar concentration inducing 50% inhibition of [^3H]-prazosin binding).

Adrenergic β2 = molecular target: T2, Adrenergic β2 (Homo sapiens, UniProt P07550); experiment: Alternative adrenergic β2 mediated cAMP production in H292 cells (AlphaScreen cAMP detection); assay type: cell-based; conditions: for EC50: cAMP, test compounds incubated 60 minutes at room temperature, 300 μM rolipram, read-out: β2 pEC50 (converted); for β2 Int Act: fraction relative to the maximum activity determined for formoterol, 60 minutes incubation
T2 construct: endogenous in cells; host or cells: H292 cells
T2 sequence (P07550 whole entry): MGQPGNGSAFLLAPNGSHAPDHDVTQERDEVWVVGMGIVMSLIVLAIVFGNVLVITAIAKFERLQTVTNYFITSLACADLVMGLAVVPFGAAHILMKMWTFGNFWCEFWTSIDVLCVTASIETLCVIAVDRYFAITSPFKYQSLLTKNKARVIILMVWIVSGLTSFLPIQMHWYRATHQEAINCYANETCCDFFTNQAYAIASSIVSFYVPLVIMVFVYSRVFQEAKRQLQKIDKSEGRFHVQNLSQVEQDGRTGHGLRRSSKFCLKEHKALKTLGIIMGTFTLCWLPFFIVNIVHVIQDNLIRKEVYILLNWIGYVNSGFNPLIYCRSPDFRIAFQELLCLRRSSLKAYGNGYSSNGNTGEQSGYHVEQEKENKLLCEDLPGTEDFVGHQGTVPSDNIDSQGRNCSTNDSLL
Protocol: Alternative Adrenergic β2 Mediated cAMP Production Cell Preparation
H292 cells were grown in 225 cm2 flasks incubator at 37° C., 5% CO2 in RPMI medium containing, 10% (v/v) FBS (foetal bovine serum) and 2 mM L-glutamine.
Adherent H292 cells were removed from tissue culture flasks by treatment with Accutase™ cell detachment solution for 15 minutes. Flasks were incubated for 15 minutes in a humidified incubator at 37° C., 5% CO2. Detached cells were re-suspended in RPMI media (containing 10% (v/v) FBS and 2 mM L-glutamine) at 0.05×10^6 cells per mL. 5000 cells in 100 μL were added to each well of a tissue-culture-treated 96-well plate and the cells incubated overnight in a humidified incubator at 37° C., 5% CO2. The culture media was removed and cells were washed twice with 100 μL assay buffer and replaced with 50 μL assay buffer (HBSS solution containing 10 mM HEPES pH7.4 and 5 mM glucose). Cells were rested at room temperature for 20 minutes after which time 25 μL of rolipram (1.2 mM made up in assay buffer containing 2.4% (v/v) dimethylsulphoxide) was added. Cells were incubated with rolipram for 10 minutes after which time test compounds were added and the cells were incubated for 60 minutes at room temperature. The final rolipram concentration in the assay was 300 μM and final vehicle concentration was 1.6% (v/v) dimethylsulphoxide. The reaction was stopped by removing supernatants, washing once with 100 μL assay buffer and replacing with 50 μL lysis buffer. The cell monolayer was frozen at −80° C. for 30 minutes (or overnight).
AlphaScreen™ cAMP Detection
The concentration of cAMP (cyclic adenosine monophosphate) in the cell lysate was determined using AlphaScreen™ methodology. The frozen cell plate was thawed for 20 minutes on a plate shaker then 10 μL of the cell lysate was transferred to a 96-well white plate. 40 μL of mixed AlphaScreen™ detection beads pre-incubated with biotinylated cAMP, was added to each well and the plate incubated at room temperature for 10 hours in the dark. The AlphaScreen™ signal was measured using an EnVision spectrophotometer (Perkin-Elmer Inc.) with the recommended manufacturer's settings. cAMP concentrations were determined by reference to a calibration curve determined in the same experiment using standard cAMP concentrations. Concentration response curves for agonists were constructed and data was fitted to a four parameter logistic equation to determine both the pEC50 and Intrinsic Activity. Intrinsic Activity was expressed as a fraction relative to the maximum activity determined for formoterol in each experiment.

[2] = molecular target: T3, recombinant human Dopamine Subtype D2s receptors (Homo sapiens, UniProt P14416); experiment: Dopamine D2 selectivity assay, inhibition of [3H]-spiperone binding to membranes; conditions: [3H]-spiperone 0.16 nM; read-out: D2 bind pIC50 (converted)
T3 construct: purchased Perkin Elmer
T3 sequence (P14416 1-414 isoform P14416-2): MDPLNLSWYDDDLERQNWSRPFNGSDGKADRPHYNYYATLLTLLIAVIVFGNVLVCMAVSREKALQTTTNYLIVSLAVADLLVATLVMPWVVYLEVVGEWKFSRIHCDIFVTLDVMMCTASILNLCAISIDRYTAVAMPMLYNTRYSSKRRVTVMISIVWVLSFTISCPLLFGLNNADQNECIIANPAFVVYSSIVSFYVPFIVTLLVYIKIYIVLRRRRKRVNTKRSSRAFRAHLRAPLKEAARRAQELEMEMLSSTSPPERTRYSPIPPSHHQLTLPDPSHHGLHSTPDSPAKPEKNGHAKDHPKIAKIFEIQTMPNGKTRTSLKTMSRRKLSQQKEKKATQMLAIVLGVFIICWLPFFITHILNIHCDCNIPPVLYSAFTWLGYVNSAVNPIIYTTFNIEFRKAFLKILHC
Protocol: Membranes containing recombinant human Dopamine Subtype D2s receptors were obtained from Perkin Elmer. These were diluted in Assay Buffer (50 mM HEPES, 1 mM EDTA, 120 mM NaCl, 0.1% gelatin, pH 7.4) to provide a final concentration of membranes that gave a clear window between maximum and minimum specific binding.
Assays were performed in U-bottomed 96-well polypropylene plates. 30 μL [^3H]-spiperone (0.16 nM final concentration) and 30 μL of test compound (10× final concentration) were added to each test well. For each assay plate 8 replicates were obtained for [^3H]-spiperone binding in the presence of 30 μL vehicle (10% (v/v) DMSO in Assay Buffer; defining maximum binding) or 30 μL Haloperidol (10 μM final concentration; defining non-specific binding (NSB)). Membranes were then added to achieve a final volume of 300 μL. The plates were incubated for 2 hours at room temperature and then filtered onto PEI coated GF/B filter plates, pre-soaked for 1 hour in Assay Buffer, using a 96-well plate Tomtec cell harvester. Five washes with 250 μL wash buffer (50 mM HEPES, 1 mM EDTA, 120 mM NaCl, pH 7.4) were performed at 4° C. to remove unbound radioactivity. The plates were dried then sealed from underneath using Packard plate sealers and MicroScint-O (50 μL) was added to each well. The plates were sealed (TopSeal A) and filter-bound radioactivity was measured with a scintillation counter (TopCount, Packard BioScience) using a 3-minute counting protocol.
as §1, with “[^3H]-spiperone” for “[^3H]-prazosin”

Row | SMILES | IC50 [1] [nM] | EC50 (Adrenergic β2) [nM] | β2 Int Act (Adrenergic β2) | IC50 [2] [nM]
1 | CCN(CC)CCN(CCNCCc1ccc(O)c2[nH]c(=O)sc12)C(=O)CCOCCc1ccccc1C(F)(F)F [Example 17, N-[2-(Diethylamino)ethyl]-N-(2-{[2-(4-hydroxy-2-oxo-2,3-dihydro-1,3-benzothiazol-7-yl)ethyl]amino}ethyl)-3-{2-[2-(trifluoromethyl)phenyl]ethoxy}propanamide ditrifluoroacetate] | 794 | 25.1 | 0.9 | –
2 | CCN(CC)CCN(CCNCCc1ccc(O)c2[nH]c(=O)sc12)C(=O)CCOCCc1cccc(Cl)c1 [Example 18, 3-[2-(3-Chlorophenyl)ethoxy]-N-[2-(diethylamino)ethyl]-N-(2-{[2-(4-hydroxy-2-oxo-2,3-dihydro-1,3-benzothiazol-7-yl)ethyl]amino}ethyl)propanamide ditrifluoroacetate] | 794 | 5.01 | 0.7 | 2510
3 | CCN(CC)CCN(CCNCCc1ccc(O)c2[nH]c(=O)sc12)C(=O)CCOCCc1cccc(Cl)c1Cl [Example 20, 3-[2-(2,3-Dichlorophenyl)ethoxy]-N-(2-diethylaminoethyl)-N-(2-{[2-(4-hydroxy-2-oxo-2,3-dihydro-1,3-benzothiazol-7-yl)ethyl]amino}ethyl)propanamide ditrifluoroacetate] | 398 | 10 | 0.6 | 1580
4 | CCN(CC)CCN(CCNCCc1ccc(O)c2[nH]c(=O)sc12)C(=O)CCOCCc1cccc(F)c1 [Example 22, N-(2-Diethylaminoethyl)-3-[2-(3-fluorophenyl)ethoxy]-N-{2-[2-(4-hydroxy-2-oxo-2,3-dihydro-1,3-benzothiazol-7-yl)ethylamino]ethyl}propanamide dihydrobromide] | 1260 | 7.94 | 0.8 | 5010
5 | CCN(CC)CCN(CCNCCc1ccc(O)c2[nH]c(=O)sc12)C(=O)CCOCCc1ccc(Cl)c(Cl)c1 [Example 27, 3-[2-(3,4-Dichlorophenyl)ethoxy]-N-(2-diethylaminoethyl)-N-{2-[2-(4-hydroxy-2-oxo-2,3-dihydro-1,3-benzothiazol-7-yl)ethylamino]ethyl}propanamide dihydrobromide] | 1000 | 31.6 | 0.6 | 3160
6 | CCN(CC)CCN(CCNCCc1ccc(O)c2[nH]c(=O)sc12)C(=O)CCOCCc1cccc(O)c1 [Example 29, N-(2-Diethylaminoethyl)-N-{2-[2-(4-hydroxy-2-oxo-2,3-dihydro-1,3-benzothiazol-7-yl)ethylamino]ethyl}-3-[2-(3-hydroxyphenyl)ethoxy]propanamide dihydrobromide] | 1260 | 6.31 | 0.8 | 251
7 | CCN(CC)CCN(CCNCCc1ccc(O)c2[nH]c(=O)sc12)C(=O)CCOCCc1ccccc1Cl [Example 31, 3-[2-(2-Chlorophenyl)ethoxy]-N-(2-diethylaminoethyl)-N-{2-[2-(4-hydroxy-2-oxo-2,3-dihydro-1,3-benzothiazol-7-yl)ethylamino]ethyl}propanamide ditrifluoroacetate] | 251 | 20 | 0.9 | 5010
8 | CCN(CC)CCN(CCNCCc1ccc(O)c2[nH]c(=O)sc12)C(=O)CCOCCc1ccc2ccccc2c1 [Example 32, N-[2-(Diethylamino)ethyl]-N-(2-{[2-(4-hydroxy-2-oxo-2,3-dihydro-1,3-benzothiazol-7-yl)ethyl]amino}ethyl)-3-[2-(2-naphthyl)ethoxy]propanamide] | 631 | 10 | 0.5 | 794
